Experimental data as given in ChEMBL document CHEMBL1909046, “DrugMatrix in vitro pharmacology data”.

Tests used:
[1] = molecular target: Mitogen-activated protein kinase 14 (Homo sapiens, UniProt Q16539); set-up: species or system Escherichia coli;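 note: inhibition of p38alpha enzyme activity in a biochemical kinase assay, with myelin basic protein serving as substrate; in other assays of this panel Not Active means under 50% inhibition at 10 µM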
[2] = DRUGMATRIX: GABAA, Flunitrazepam, Central radioligand binding (ligand: [3H] Flunitrazepam); assay type: cell membranes, Rattus norvegicus, Wistar, Brain, Membrane; settings: Not Active = under 50% inhibition at 10 µM
[3] = molecular target: T1, Alpha-2C adrenergic receptor (Homo sapiens, UniProt P18825); assay: DRUGMATRIX: Adrenergic Alpha-2C radioligand binding (ligand: [3H] MK-912); assay type: cell membranes, Sf9, Membrane
T1 sequence (P18825 whole entry): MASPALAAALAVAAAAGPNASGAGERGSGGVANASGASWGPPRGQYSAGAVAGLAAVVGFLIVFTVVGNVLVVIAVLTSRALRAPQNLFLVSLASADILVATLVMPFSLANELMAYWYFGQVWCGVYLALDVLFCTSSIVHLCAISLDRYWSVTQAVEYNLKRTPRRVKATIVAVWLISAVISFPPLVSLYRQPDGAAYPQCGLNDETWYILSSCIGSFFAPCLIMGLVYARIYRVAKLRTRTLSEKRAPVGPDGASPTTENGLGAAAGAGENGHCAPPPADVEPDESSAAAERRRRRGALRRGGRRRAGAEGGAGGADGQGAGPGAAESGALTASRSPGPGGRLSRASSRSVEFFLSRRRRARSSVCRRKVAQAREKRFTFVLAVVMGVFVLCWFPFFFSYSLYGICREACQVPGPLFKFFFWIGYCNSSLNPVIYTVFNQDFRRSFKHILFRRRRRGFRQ

[4] = molecular target: T2, Alpha-1B adrenergic receptor (Rattus norvegicus, UniProt P15823); assay: DRUGMATRIX: Alpha-1B adrenergic receptor radioligand binding (ligand: prazosin); assay type: cell membranes, Wistar, Liver, Membrane; settings: Not Active = under 50% inhibition at 10 µM
T2 sequence (P15823 whole entry): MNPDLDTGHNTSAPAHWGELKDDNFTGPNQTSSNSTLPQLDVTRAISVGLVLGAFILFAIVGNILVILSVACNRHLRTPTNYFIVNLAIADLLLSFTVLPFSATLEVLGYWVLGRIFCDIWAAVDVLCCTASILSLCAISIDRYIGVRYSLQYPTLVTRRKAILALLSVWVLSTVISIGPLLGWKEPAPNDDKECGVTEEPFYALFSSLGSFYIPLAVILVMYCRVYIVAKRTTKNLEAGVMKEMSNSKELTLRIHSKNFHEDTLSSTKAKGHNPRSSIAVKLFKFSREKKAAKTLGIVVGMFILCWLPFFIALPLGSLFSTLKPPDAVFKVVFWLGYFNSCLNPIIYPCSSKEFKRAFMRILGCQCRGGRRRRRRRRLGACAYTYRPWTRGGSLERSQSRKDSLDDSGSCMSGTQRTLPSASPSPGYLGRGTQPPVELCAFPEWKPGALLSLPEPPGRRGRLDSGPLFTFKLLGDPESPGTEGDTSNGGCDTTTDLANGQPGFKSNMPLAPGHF

[5] = molecular target: T3, Neuropeptide Y receptor type 2 (Homo sapiens, UniProt P49146); assay type: cell membranes, Membrane; settings: kan-ts; note: in other assays of this panel Not Active means under 50% inhibition at 10 µM
T3 sequence (P49146 whole entry): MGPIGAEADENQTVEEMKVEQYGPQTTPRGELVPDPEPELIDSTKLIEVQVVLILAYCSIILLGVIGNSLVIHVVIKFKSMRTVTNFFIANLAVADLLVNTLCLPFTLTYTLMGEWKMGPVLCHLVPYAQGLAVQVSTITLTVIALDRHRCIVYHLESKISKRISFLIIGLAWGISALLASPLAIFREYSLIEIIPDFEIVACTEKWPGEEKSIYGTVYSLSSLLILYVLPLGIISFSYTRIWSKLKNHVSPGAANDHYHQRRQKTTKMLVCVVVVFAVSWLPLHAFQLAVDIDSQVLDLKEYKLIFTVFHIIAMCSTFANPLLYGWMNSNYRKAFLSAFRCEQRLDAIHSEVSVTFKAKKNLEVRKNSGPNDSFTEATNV

[6] = molecular target: C-C chemokine receptor type 5 (Homo sapiens, UniProt P51681); assay type: cell membranes, HEK293, Membrane; settings: hek293; note: in other assays of this panel Not Active means under 50% inhibition at 10 µM
C-C chemokine receptor type 5, sequence (P51681 whole entry): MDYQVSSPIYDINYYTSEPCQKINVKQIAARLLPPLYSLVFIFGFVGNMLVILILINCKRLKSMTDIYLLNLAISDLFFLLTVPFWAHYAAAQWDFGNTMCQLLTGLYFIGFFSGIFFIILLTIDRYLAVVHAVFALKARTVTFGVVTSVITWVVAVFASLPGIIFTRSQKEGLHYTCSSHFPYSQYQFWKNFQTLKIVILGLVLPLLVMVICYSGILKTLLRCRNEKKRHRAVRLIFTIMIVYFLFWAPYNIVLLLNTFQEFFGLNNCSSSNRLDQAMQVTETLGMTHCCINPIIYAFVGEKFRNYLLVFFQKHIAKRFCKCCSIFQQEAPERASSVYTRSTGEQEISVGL

Mitogen-activated protein kinase 14, sequence (Q16539 whole entry): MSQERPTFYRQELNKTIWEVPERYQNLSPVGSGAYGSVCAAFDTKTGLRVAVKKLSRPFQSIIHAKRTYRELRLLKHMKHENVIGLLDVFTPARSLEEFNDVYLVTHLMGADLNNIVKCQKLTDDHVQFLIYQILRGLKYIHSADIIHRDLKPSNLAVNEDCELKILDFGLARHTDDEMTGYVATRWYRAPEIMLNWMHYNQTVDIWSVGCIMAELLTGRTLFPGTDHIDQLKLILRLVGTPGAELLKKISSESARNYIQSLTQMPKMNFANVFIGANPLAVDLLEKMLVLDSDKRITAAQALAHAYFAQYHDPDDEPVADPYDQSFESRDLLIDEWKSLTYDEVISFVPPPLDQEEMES

| Compound | IC50 [1] | IC50 [2] | Ki [2] | IC50 ([3]; sf9) | IC50 [4] | IC50 [5] | IC50 [6] | IC50 ([3]; read-out: IC50) [nM] | Ki ([3]; read-out: Ki) [nM] | IC50 ([4]; read-out: IC50) [nM] | Ki ([4]; read-out: Ki) [nM] | IC50 ([1]; read-out: IC50) [nM] | Ki [1] | Ki ([3]; sf9) | Ki [4] | Ki [5] | Ki [6] |
| --- | --- | --- | --- | --- | --- | --- | --- | --- | --- | --- | --- | --- | --- | --- | --- | --- | --- |
| OC[C@H]1O[C@@H]2O[C@H]3[C@H](O)[C@@H](O)[C@@H](O[C@H]4[C@H](O)[C@@H](O)[C@@H](O[C@H]5[C@H](O)[C@@H](O)[C@@H](O[C@H]6[C@H](O)[C@@H](O)[C@@H](O[C@H]7[C@H](O)[C@@H](O)[C@@H](O[C@H]1[C@H](O)[C@H]2O)O[C@@H]7CO)O[C@@H]6CO)O[C@@H]5CO)O[C@@H]4CO)O[C@@H]3CO [ALFADEX] | Not Active | Not Active | Not Active | Not Active | Not Active | Not Active | Not Active |  |  |  |  |  |  |  |  |  |  |
| COC(=O)C[C@](O)(CCC(C)(C)O)C(=O)O[C@@H]1C(OC)=C[C@]23CCCN2CCc2cc4c(cc2[C@H]13)OCO4 [HARRINGTONINE] | Not Active | Not Active | Not Active | Not Active | Not Active | Not Active | Not Active |  |  |  |  |  |  |  |  |  |  |
| O=C1CN(/N=C/c2ccc([N+](=O)[O-])o2)C(=O)N1 [NITROFURANTOIN] | Not Active | Not Active | Not Active | Not Active | Not Active | Not Active | Not Active |  |  |  |  |  |  |  |  |  |  |
| C[N+](C)(C)CCOC(N)=O.[Cl-] [CARBACHOL] | Not Active | Not Active | Not Active | Not Active | Not Active | Not Active | Not Active |  |  |  |  |  |  |  |  |  |  |
| O=C(NCCN1CCOCC1)c1ccc(Cl)cc1 [MOCLOBEMIDE] | Not Active | Not Active | Not Active | Not Active | Not Active | Not Active | Not Active |  |  |  |  |  |  |  |  |  |  |
| CC12CCC(CC1)C(C)(C)O2 [EUCALYPTOL] | Not Active | Not Active | Not Active | Not Active | Not Active | Not Active | Not Active |  |  |  |  |  |  |  |  |  |  |
| CC(N)Cc1c[nH]c2ccc(OCc3cccs3)cc12 (stereo not drawn) [BW-723C86] | Not Active | Not Active | Not Active | Not Active | Not Active | Not Active | Not Active |  |  |  |  |  |  |  |  |  |  |
| CCN1C[C@]2(COC)[C@H](O)C[C@H](OC)[C@@]34[C@@H]5C[C@@]6(O)[C@H](OC(=O)c7ccccc7)[C@@H]5[C@@](OC(C)=O)([C@@H]([C@H](OC)[C@H]23)[C@@H]14)[C@@H](O)[C@@H]6OC [ACONITINE] | Not Active | Not Active | Not Active | Not Active | Not Active | Not Active | Not Active |  |  |  |  |  |  |  |  |  |  |
| OC[C@H]1OC2C3[C@@H](CO)OC(O[C@H]4[C@H](O)[C@@H](O)[C@@H](O[C@H]5[C@H](O)[C@@H](O)[C@@H](O[C@H]6[C@H](O)[C@@H](O)[C@@H](O[C@H]7[C@H](O)[C@@H](O)[C@@H](O[C@H]8[C@H](O)[C@@H](O)[C@@H](O[C@H]9[C@H](O)[C@@H](O)C(OC1[C@H](O)[C@H]2O)O[C@@H]9CO)O[C@@H]8CO)O[C@@H]7CO)O[C@@H]6CO)O[C@@H]5CO)O[C@@H]4CO)[C@H](O)[C@H]3O | Not Active | Not Active | Not Active | Not Active | Not Active | Not Active | Not Active |  |  |  |  |  |  |  |  |  |  |
| CN(CCOc1ccc(C[C@H](Nc2ccccc2C(=O)c2ccccc2)C(=O)O)cc1)c1ccccn1 | Not Active | Not Active | Not Active | Not Active | Not Active | Not Active | Not Active |  |  |  |  |  |  |  |  |  |  |
| CCN1CCN(c2cc3c(cc2F)c(=O)c(C(=O)O)cn3C2CC2)CC1 [ENROFLOXACIN] | Not Active | Not Active | Not Active | Not Active | Not Active | Not Active | Not Active |  |  |  |  |  |  |  |  |  |  |
| NS(=O)(=O)c1cc(C(=O)O)c(NCc2ccco2)cc1Cl [FUROSEMIDE] | Not Active | Not Active | Not Active | Not Active | Not Active | Not Active | Not Active |  |  |  |  |  |  |  |  |  |  |
| NC(=O)NC(=O)Cc1ccccc1 [PHENACEMIDE] | Not Active | Not Active | Not Active | Not Active | Not Active | Not Active | Not Active |  |  |  |  |  |  |  |  |  |  |
| CC(CN1c2ccccc2Sc2ccccc21)N(C)C (stereo not drawn) [PROMETHAZINE] | Not Active | Not Active | Not Active |  |  | Not Active | Not Active | 2430 | 353 | 39 | 21 |  |  |  |  |  |  |
| NC(N)=Nc1nc(CSCCC(N)=NS(N)(=O)=O)cs1 [FAMOTIDINE] | Not Active | Not Active | Not Active | Not Active | Not Active | Not Active | Not Active |  |  |  |  |  |  |  |  |  |  |
| C[C@]12CC[C@@H](O)C[C@@H]1CC[C@@H]1[C@@H]2CC[C@]2(C)C(=O)CC[C@@H]12 [ANDROSTERONE] | Not Active | Not Active | Not Active | Not Active | Not Active | Not Active | Not Active |  |  |  |  |  |  |  |  |  |  |
| ClC1=C(Cl)[C@]2(Cl)[C@@H]3[C@@H]4C[C@@H]([C@H]5O[C@@H]45)[C@@H]3[C@@]1(Cl)C2(Cl)Cl [DIELDRIN] |  | Not Active | Not Active | Not Active | Not Active | Not Active | Not Active |  |  |  |  | 43200 |  |  |  |  |  |
| CC(=O)[C@]1(O)Cc2c(O)c3c(c(O)c2[C@@H](O[C@H]2C[C@H](N)[C@H](O)[C@H](C)O2)C1)C(=O)c1ccccc1C3=O [IDARUBICIN] | Not Active | Not Active | Not Active | Not Active | Not Active | Not Active | Not Active |  |  |  |  |  |  |  |  |  |  |
| COC(=O)Nc1nc2ccc(Sc3ccccc3)cc2[nH]1 [FENBENDAZOLE] |  | Not Active | Not Active | Not Active | Not Active | Not Active | Not Active |  |  |  |  | 3190 |  |  |  |  |  |
| Cc1ccnc2c1NC(=O)c1cccnc1N2C1CC1 [NEVIRAPINE] | Not Active | Not Active | Not Active | Not Active | Not Active | Not Active | Not Active |  |  |  |  |  |  |  |  |  |  |
| COPPER(II) OXIDE | Not Active | Not Active | Not Active | Not Active | Not Active | Not Active | Not Active |  |  |  |  |  | Not Active | Not Active | Not Active | Not Active | Not Active |
| OC[C@H]1O[C@@H]2O[C@H]3[C@H](O)[C@@H](O)[C@@H](O[C@H]4[C@H](O)[C@@H](O)[C@@H](O[C@H]5[C@H](O)[C@@H](O)[C@@H](O[C@H]6[C@H](O)[C@@H](O)[C@@H](O[C@H]7[C@H](O)[C@@H](O)[C@@H](O[C@H]8[C@H](O)[C@@H](O)[C@@H](O[C@H]1[C@H](O)[C@H]2O)O[C@@H]8CO)O[C@@H]7CO)O[C@@H]6CO)O[C@@H]5CO)O[C@@H]4CO)O[C@@H]3CO [BETADEX] | Not Active | Not Active | Not Active | Not Active | Not Active | Not Active | Not Active |  |  |  |  |  |  |  |  |  |  |
| O=C(O)CO [GLYCOLIC ACID] | Not Active | Not Active | Not Active | Not Active | Not Active | Not Active | Not Active |  |  |  |  |  |  |  |  |  |  |
